US7094797B2, “Organ fibrosis inhibitor” (Ajinomoto Co., Inc., priority 2001, dated 2006)

Key:
Hepatic stellate cells = assay: PDGF-stimulated DNA synthesis (BrdU uptake, ELISA) of Hepatic stellate cells; assay type: cell-based, rat; details: PDGF 25 ng/ml
Protocol: Hepatic stellate cells were isolated from a male Wistar rat liver and were cultured by the liver perfusion method with pronase E and collagenase. Hepatic stellate cells on day 8 to day 14 were cultured overnight in a culture medium containing 10 vol. % fetal calf serum (FCS). The culture medium was replaced with a culture medium containing 0.1 vol. % FCS, and it was cultured for 48 hours. Subsequently, L-histidine as the test substance was added in an amount to give a concentration of 1 to 30 mM. Then, further, platelet-derived growth factor (PDGF) was added to give a final concentration of 25 ng/ml, and the Hepatic stellate cells were cultured for 24 hours. Six hours before the completion of the culturing, bromodeoxyuridine (BrdU) was added to the culture system. After the completion of the culturing, the BrdU uptake into the cells was assayed by ELISA (enzyme-linked immunosorbent assay). As a control, only PDGF (at the final concentration of 25 ng/ml) was added to the culture medium. When the BrdU uptake in the control was defined as 100%, the value of each of the groups was calculated and the results are shown in FIG. 2.
In the same manner as in Example 2, the effects of L-histidine and D-histidine (individually at 30 mM) on the DNA synthesis of Hepatic stellate cells were compared with each other. When the BrdU uptake in the control was defined as 100%, the value of each of the groups was calculated and is shown in FIG. 3.
Hepatic stellate cells were isolated from male Wistar rat liver, and were cultured by the liver perfusion method with pronase E and collagenase. Hepatic stellate cells on day 8 to day 14 were cultured overnight in a culture medium containing 10 vol. % fetal calf serum (FCS). The culture medium was replaced with a 0.1 vol. % FCS culture medium, and it was cultured for 48 hours. Subsequently, L-cysteine, L-histidine or a composition of L-cysteine and L-histidine as a test substance was added thereto. […] When the BrdU uptake in the control was defined as 100%, the value of each of the groups was calculated and the results are shown in FIG. 4.

[1] = system: Human normal lung fibroblast cells (HLF-1 cell); assay: DNA synthesis (BrdU uptake, ELISA) of human normal lung fibroblast cells stimulated with PDGF or FCS; assay type: cell-based; details: HLF-1, 10 or 30 mM, 24 hours
Protocol: Human normal lung fibroblast cells (HLF-1 cell) were cultured overnight in a culture medium containing 10 vol. % fetal calf serum (FCS). Subsequently, the culture medium was replaced with a 0.1 vol. % FCS culture medium, and it was cultured for 24 hours. Subsequently, L-histidine (His) as the test substance was added so that the concentration was 10 or 30 mM. Then, further, platelet-derived growth factor (PDGF) was added to give a final concentration of 25 ng/ml or FCS was added to give a final concentration of 5 vol. %, and the HLF-1 cells were cultured for 24 hours. Six hours before the completion of the culturing, bromodeoxyuridine (BrdU) was added to the culture system. After the completion of the culturing, the BrdU uptake into the cells was assayed by ELISA (enzyme-linked immunosorbent assay). As a control, only PDGF (at the final concentration of 25 ng/ml) or FCS (at the final concentration of 5 vol. %) was added to the culture medium.

[2] = system: Human kidney mesangial cells; assay: DNA synthesis (BrdU uptake, ELISA) of human kidney mesangial cells stimulated with FCS; assay type: cell-based; details: 10 or 30 mM, FCS 5 vol. %, 24 hours; FIG. 6
Protocol: Human kidney mesangial cells were cultured overnight in a culture medium containing 10 vol. % fetal calf serum (FCS). Subsequently, the culture medium was replaced with a 0.1 vol. % FCS culture medium, and it was cultured for 24 hours. Subsequently, L-histidine (His) as a test substance was added in an amount to give a concentration of 10 or 30 mM. Then, further, FCS was added to give a final concentration of 5 vol. %, and the mesangial cells were cultured for 24 hours. Six hours before the completion of the culturing, bromodeoxyuridine (BrdU) was added to the culture system. After the completion of the culturing, the BrdU uptake into the cells was assayed by ELISA (enzyme-linked immunosorbent assay). As a control, only 5 vol. % FCS was added to the culture medium. When the BrdU uptake in the control was defined as 100%, the value of each of the groups was calculated and the results are shown in FIG. 6.

[3] = system: liver fibrosis induced by dimethylnitroseamine (DMN) in SD rat; assay: DMN-induced liver fibrosis in rat, amount of hydroxyproline (Hyp) in the liver; assay type: in vivo; details: male SD rat, DMN 10 mg/kg i.p. three times weekly for 3 weeks; His 0.2, 0.5, 1.0, 2.0 wt. % in feed, oral; day 21; FIG. 1
Protocol: Dimethylnitroseamine (DMN) was administered intraperitoneally at 10 mg/kg three times weekly to a male 9-week-old SD rat for 3 weeks to induce liver fibrosis. A commercially available feed or experimental diets prepared by adding L-histidine (His) as a test substance at concentrations of 0.2, 0.5, 1.0, and 2.0 wt. % to a commercially available feed were fed beginning on the day of start of DMN administration and thereafter. On day 21 from the start of the DMN administration, the liver was collected to assay the amount of hydroxyproline (Hyp) in the liver as a liver fibrosis marker, using an amino acid analyzer.

[4] = system: liver damage due to D-galactosamine administration; details: rat given L-histidine; cited from earlier work
[5] = 30 mM, levels of suppression of L- and D-form almost equal, FIG. 3

SMILES	DNA synthesis of Hepatic stellate cells activated with PDGF (BrdU uptake) (Hepatic stellate cells; [5])	DNA synthesis of human normal lung fibroblast cell with FCS (BrdU uptake) ([1]; FCS 5 vol. %, FIG. 5b)	DNA synthesis of human normal lung fibroblast cell with PDGF (BrdU uptake) ([1]; PDGF 25 ng/ml, FIG. 5a)	DNA synthesis of Hepatic stellate cells activated with PDGF (BrdU uptake) (Hepatic stellate cells; 1 to 30 mM, 24 hours, dose-dependent, FIG. 2)	DNA synthesis of human kidney mesangial cell with FCS (BrdU uptake) [2]	amount of Hyp in the liver (liver fibrosis marker) [3]	liver damage due to D-galactosamine administration [4]
N[C@H](Cc1c[nH]cn1)C(=O)O [D-histidine]	strongly suppressed						
N[C@@H](Cc1c[nH]cn1)C(=O)O [L-histidine]	strongly suppressed	strongly suppressed	strongly suppressed	strongly suppressed	strongly suppressed	significantly decreased	can be reduced
